Tested on: Rosa26 cells
Assay: Apoptosis and cell death, annexin V and propidium iodide staining, flow cytometry, Rosa26 cells
Format: cell-based, mouse
Details: indicated levels of IPTG (0, 250 pM, 2.5 μM, 1 mM)
Protocol: Rosa26fibroblasts were obtained from embryonic day 14.5 Rosa26-R mice. The cells were maintained in embryonic fibroblast medium (high-glucose DMEM, 10% FBS, penicillin/streptomycin, L-glutamine, and sodium pyruvate) and grown in a humidified 5% CO2, 37CC incubator. These cells were transfected with 0.8 μg of LTRi-cre and LTRi-bax using Lipofectamine 2000 reagent (Invitrogen). The LTRi-cre cells were analyzed by β-galactosidase staining 48 hr after transfection. The LTRi-bax cells were stained and analyzed by flow cytometry 48 hr after transfection. […]
Cells were grown in 12-well plates, and 24 hr after plating, they were transfected with 0.8 μg of LTRi-bax using Lipofectamine 2000 reagent (Invitrogen) per the manufacturer's protocol and exposed to the indicated levels of IPTG. […] Annexin V has a high affinity for phosphatidylserine; therefore, annexin V conjugated with Alexa Fluor 488 can identify apoptotic cells by binding to phosphatidylserine and can be analyzed by flow cytometry measuring the fluorescence emission at 530 nm (FL1). […] It is impermeable to live and apoptotic cells but stains dead cells with red fluorescence. Dead cells appear red and can be analyzed by flow cytometry measuring the red florescence emission >575 nm (FL3). […]

CC(C)S[C@@H]1O[C@H](CO)[C@H](O)[C@H](O)[C@H]1O [IPTG, isopropyl-β-thiogalactopyranoside]
apoptosis or cell death of non-transfected cells exposed to inducer: no change in apoptosis or cell death
